These results are taken from ChEMBL document CHEMBL5113505 (Eur J Med Chem, 2022).

Assay [1] deals with T1, Dual specificity mitogen-activated protein kinase kinase 7 (Homo sapiens) (UniProt O14733).
T1 sequence (whole entry): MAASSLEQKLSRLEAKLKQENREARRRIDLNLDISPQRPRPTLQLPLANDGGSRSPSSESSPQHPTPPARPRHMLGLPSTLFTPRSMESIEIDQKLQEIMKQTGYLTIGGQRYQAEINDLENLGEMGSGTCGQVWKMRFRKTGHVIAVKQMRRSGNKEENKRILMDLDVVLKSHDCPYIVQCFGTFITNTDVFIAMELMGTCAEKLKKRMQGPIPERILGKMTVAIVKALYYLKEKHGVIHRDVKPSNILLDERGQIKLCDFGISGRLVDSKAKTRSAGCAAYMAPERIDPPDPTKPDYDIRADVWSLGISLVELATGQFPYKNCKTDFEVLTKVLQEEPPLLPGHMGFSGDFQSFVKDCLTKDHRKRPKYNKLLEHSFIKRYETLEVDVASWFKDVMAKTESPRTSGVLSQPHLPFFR
The experiment in a line: Binding affinity to MKK7 (unknown origin) assessed as percent of control at 100 nM by Kinomescan method relative to control.

Assay [2] concerns the target Mitogen-activated protein kinase kinase kinase 20 (Homo sapiens) (UniProt Q9NYL2). The assay can be described thus: Binding affinity to ZAK (unknown origin) assessed as percent of control at 100 nM by Kinomescan method relative to control.
Assay [3] deals with T2, Dual specificity mitogen-activated protein kinase kinase 6 (Homo sapiens, UniProt P52564).
T2 sequence (P52564 whole entry): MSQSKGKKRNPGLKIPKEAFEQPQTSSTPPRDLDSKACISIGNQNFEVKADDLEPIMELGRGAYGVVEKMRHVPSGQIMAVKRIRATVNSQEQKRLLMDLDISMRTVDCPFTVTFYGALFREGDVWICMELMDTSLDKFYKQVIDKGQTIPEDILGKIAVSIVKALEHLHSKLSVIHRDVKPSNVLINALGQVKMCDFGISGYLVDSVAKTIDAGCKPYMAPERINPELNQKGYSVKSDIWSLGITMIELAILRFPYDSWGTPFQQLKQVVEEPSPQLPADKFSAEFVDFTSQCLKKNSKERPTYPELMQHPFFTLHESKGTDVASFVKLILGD
The assay can be described thus: Inhibition of MKK6 (unknown origin).

Bounds are passed on as bounds.

Chain of Mitogen-activated protein kinase kinase kinase 20 (Homo sapiens) (Q9NYL2 2-800 limits assumed): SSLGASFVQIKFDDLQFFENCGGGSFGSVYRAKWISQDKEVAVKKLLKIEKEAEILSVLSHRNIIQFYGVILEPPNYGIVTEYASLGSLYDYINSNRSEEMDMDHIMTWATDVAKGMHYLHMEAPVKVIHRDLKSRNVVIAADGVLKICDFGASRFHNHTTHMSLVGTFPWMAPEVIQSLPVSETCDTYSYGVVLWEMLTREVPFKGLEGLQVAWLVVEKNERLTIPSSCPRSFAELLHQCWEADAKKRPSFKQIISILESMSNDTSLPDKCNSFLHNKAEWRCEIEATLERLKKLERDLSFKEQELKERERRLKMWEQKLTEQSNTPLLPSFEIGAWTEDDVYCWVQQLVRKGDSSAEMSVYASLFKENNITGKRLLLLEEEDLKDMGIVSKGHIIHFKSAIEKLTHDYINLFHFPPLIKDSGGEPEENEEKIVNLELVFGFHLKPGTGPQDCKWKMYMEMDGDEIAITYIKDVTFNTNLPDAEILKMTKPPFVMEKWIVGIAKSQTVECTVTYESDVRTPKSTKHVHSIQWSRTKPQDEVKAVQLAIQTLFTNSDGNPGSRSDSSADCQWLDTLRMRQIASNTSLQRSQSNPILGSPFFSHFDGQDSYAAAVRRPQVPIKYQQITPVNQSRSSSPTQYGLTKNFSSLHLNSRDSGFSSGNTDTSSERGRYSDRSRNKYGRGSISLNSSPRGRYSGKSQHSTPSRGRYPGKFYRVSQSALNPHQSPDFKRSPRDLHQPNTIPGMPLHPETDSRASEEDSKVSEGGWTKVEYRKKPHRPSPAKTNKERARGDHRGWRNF

Turning to `CCCS(=O)(=O)Nc1ccc(F)c(C(=O)c2c[nH]c3ncc(-c4cccnc4)cc23)c1F`, the Activity in assay [1] was found to be 100%; in assay [2], 0.6%.

For the compound `NC(=O)c1ccc2[nH]c3ncnc(-c4ccccc4)c3c2c1`, the IC50 (as a rule, the point on the concentration scale where inhibition reaches its midpoint) in assay [3] is less than 1000 nM.

Take `CCCS(=O)(=O)Nc1ccc(F)c(C(=O)c2ccc3[nH]c4ncc(-c5ccc(C(N)=O)cc5)cc4c3c2)c1F`: the Activity is 98% in assay [1] and 89% in assay [2].

In the case of `CCCS(=O)(=O)Nc1ccc(F)c(C(=O)c2c[nH]c3ncc(-c4ccc(O)cc4)cc23)c1F`, the Activity in assay [1] worked out at 100%; in assay [2], 0.15%.

Regarding `CCCS(=O)(=O)Nc1ccc(F)c(C(=O)c2n[nH]c3ncc(-c4ccc(S(=O)(=O)NCC(O)CO)cc4)cc23)c1F` (stereo unspecified), the Activity in assay [1] worked out at 100%; in assay [2], 29%.

`CCCS(=O)(=O)Nc1ccc(F)c(C(=O)c2ccc3[nH]c4ncc(-c5ccc(C(=O)O)cc5)cc4c3c2)c1F`: the Activity in assay [1] was found to be 100%; in assay [2], 98%.

`CCCS(=O)(=O)Nc1ccc(F)c(C(=O)c2c[nH]c3ncc(-c4ccc(OCC(O)CO)cc4)cc23)c1F` (stereo unspecified): the Activity in assay [1] came to 99%; in assay [2] it was 0.35%.

Take `CCCS(=O)(=O)Nc1ccc(F)c(C(=O)c2ccc3[nH]c4ncc(-c5ccc(C(=O)NCC(O)CO)cc5)cc4c3c2)c1F` (stereo unspecified): the values for the Activity in assay [1] and in assay [2] were 100% and 88%, respectively.

`CCCS(=O)(=O)Nc1ccc(F)c(C(=O)c2ccc3[nH]c4ncc(-c5ccc(S(N)(=O)=O)cc5)cc4c3c2)c1F`: the Activity in assay [1] and in assay [2] was 100% throughout.

Consider `CCCS(=O)(=O)Nc1ccc(F)c(C(=O)c2ccc3[nH]c4ncc(-c5ccncc5)cc4c3c2)c1F`, for which the Activity in assay [1] is 91%; in assay [2], 94%.

`CCCS(=O)(=O)Nc1ccc(F)c(C(=O)c2ccc3[nH]c4ncc(-c5ccc(O)cc5)cc4c3c2)c1F`: the Activity in assay [1] and in assay [2] was 100% in each case.

`CCCS(=O)(=O)Nc1ccc(F)c(C(=O)c2ccc3[nH]c4ncc(-c5ccccc5F)cc4c3c2)c1F`: the Activity in assay [1] and in assay [2] was 100% in each case.

For the compound `CCCS(=O)(=O)Nc1ccc(F)c(C(=O)c2n[nH]c3ncc(-c4ccc(C(=O)NCC(O)CO)cc4)cc23)c1F` (stereo unspecified), the Activity in assay [1] worked out at 97%; in assay [2] it was 2.8%.

For the compound `CCCS(=O)(=O)Nc1ccc(F)c(C(=O)c2ccc3[nH]c4ncc(-c5ccc(Cl)cc5)cc4c3c2)c1F`, the Activity in assay [1] and in assay [2] was 100% each time.

With `CCCS(=O)(=O)Nc1ccc(F)c(C(=O)c2ccc3[nH]c4ncc(-c5ccc(OCC(O)CO)cc5)cc4c3c2)c1F` (stereo unspecified), the Activity in assay [1] was 96%; in assay [2], 100%.

As for `CCCS(=O)(=O)Nc1ccc(F)c(C(=O)c2n[nH]c3ncc(-c4ccc(O)cc4)cc23)c1F`, the Activity in assay [2] was determined as 0%.

Consider `CCCS(=O)(=O)Nc1ccc(F)c(C(=O)c2ccc3[nH]c4ncc(-c5ccc(-c6nnn[nH]6)cc5)cc4c3c2)c1F`, for which the Activity in assay [1] and in assay [2] was 100% in each case.

Take `CCCS(=O)(=O)Nc1ccc(F)c(C(=O)c2c[nH]c3ncc(-c4ccc(S(N)(=O)=O)cc4)cc23)c1F`: the Activity in assay [1] is 78%; in assay [2] it was 94%.

In the case of `CCCS(=O)(=O)Nc1ccc(F)c(C(=O)c2ccc3[nH]c4ncc(-c5ccc(S(=O)(=O)NCC(O)CO)cc5)cc4c3c2)c1F` (stereo unspecified), the Activity in assay [1] worked out at 97%; in assay [2], 100%.
